Patent US8426426B2, “Gyrase inhibitors and uses thereof” (Vertex Pharmaceuticals Incorporated, priority 2002, dated 2013)
Values after ≈ are worked out from the molar mass of the structure shown.

Columns and labels:
S. aureus = test: Susceptibility testing in liquid media (MIC assay) against S. aureus; assay type: cell-based; conditions: 35° C. overnight (16 to 20 hours); for MIC: Staphylococcus aureus
Protocol: (§1) Compounds of this invention were tested for antimicrobial activity by susceptibility testing in liquid media. Such assays were performed within the guidelines of the latest NCCLS document governing such practices: “M7-A5 Methods for dilution Antimicrobial Susceptibility Tests for Bacteria that Grow Aerobically; Approved Standard—Fifth Edition (2000)”. Other publications such as “Antibiotics in Laboratory Medicine” (Edited by V. Lorian, Publishers Williams and Wilkins, 1996) provide essential practical techniques in laboratory antibiotic testing.
(§2) Several discrete bacterial colonies (3 to 7) from a freshly streaked plate were transferred to an appropriate rich broth medium such as MHB, supplemented where appropriate for the more fastidious organisms. This was grown overnight to high density followed by a 1 or 2-thousand-fold dilution to give an inoculation density of between 5×10^5 and 5×10^6 CFU per mL. Alternatively, the freshly picked colonies can be incubated at 37° C. for about 4 to 8 hours until the culture equals or exceeds a turbidity of a 0.5 McFarland standard (approximately 1.5×10^8 cells per mL) and diluted to give the same CFU per mL as above. In a more convenient method, the inoculum was prepared using a commercially available mechanical device (the BBL PROMPT System) that involves touching five colonies directly with a wand, containing crosshatch grooves at its bottom, followed by suspension of the bacteria in an appropriate volume of saline. Dilution to the appropriate inoculum cell density was made from this cell suspension. The broth used for testing consists of MHB supplemented with 50 mg per L of Ca^2+ and 25 mg per L of Mg^2+. Standard dilution panels of control antibiotics were made and stored as in the NCCLS standard M7-A5, the dilution range typically being in the 128 μg per mL to 0.015 μg per mL (by 2-fold serial dilution). The test compounds were dissolved and diluted fresh for experimentation on the same day; the same or similar ranges of concentration as above being used. The test compounds and controls were dispensed into a multiwell plate and test bacteria added such that the final inoculation was approximately 5×10^4 CFU per well and the final volume was 100 μL. The plates were incubated at 35° C. overnight (16 to 20 hours) and checked by eye for turbidity or quantitated with a multiwell plate reader. […] Such determinations were also compared to the appropriate tables contained in the above two publications to ensure that the range of antibacterial activity is within the acceptable range for this standardized assay.
(§3) The compound numbers correspond to the compound numbers in Table 1.

S. pneumoniae = test: Susceptibility testing in liquid media (MIC assay) against S. pneumoniae; assay type: cell-based; conditions: Streptococcus pneumoniae, 35° C. overnight (16 to 20 hours)
Protocol: as §1, §2, §3

| MIC (S. aureus) | MIC (S. pneumoniae) | Molecule | MIC (Activity) against S. aureus (S. aureus) |
| --- | --- | --- | --- |
| ≤ 0.5 µg/mL | ≤ 0.5 µg/mL | CCNC(=O)Nc1nc2cc(-c3cccnc3)cc(C(=O)OC)c2[nH]1 [Compound I-1, 2-(3-Ethyl-ureido)-6-pyridin-3-yl-3H-benzoimidazole-4-carboxylic acid methyl ester] |  |
|  | > 1 µg/mL | CCNC(=O)Nc1nc2cc(-c3cccnc3)cc(C(=O)CN(C)C)c2[nH]1 [Compound I-4] |  |
| > 1 µg/mL |  | CCNC(=O)Nc1nc2cc(-c3cccnc3)cc(C(=O)NCCO)c2[nH]1 [Compound I-13] |  |
| > 1 µg/mL |  | CCNC(=O)Nc1nc2cc(-c3cccnc3)cc(C(=O)Nc3cc(C)[nH]n3)c2[nH]1 [Compound I-15] |  |
| > 1 µg/mL |  | CCNC(=O)Nc1nc2cc(-c3cccnc3)cc(C(=O)NC)c2[nH]1 [Compound I-16] |  |
| 0.5 to 1 µg/mL (≈ 1.21 to 2.41 µM) | ≤ 0.5 µg/mL | CCNC(=O)Nc1nc2cc(-c3cccnc3)cc(C(=O)NCc3ccccc3)c2[nH]1 [Compound I-17] |  |
| ≤ 0.5 µg/mL | ≤ 0.5 µg/mL | CCNC(=O)Nc1nc2cc(-c3cccnc3)cc(C(C)=O)c2[nH]1 [Compound I-18] |  |
| ≤ 0.5 µg/mL | ≤ 0.5 µg/mL | CCNC(=O)Nc1nc2cc(-c3cccnc3)cc(C(=O)CC)c2[nH]1 [Compound I-19] |  |
| ≤ 0.5 µg/mL | ≤ 0.5 µg/mL | CCCC(=O)c1cc(-c2cccnc2)cc2nc(NC(=O)NCC)[nH]c12 [Compound I-20] |  |
| ≤ 0.5 µg/mL | ≤ 0.5 µg/mL | CCNC(=O)Nc1nc2cc(-c3cccnc3)cc(C(=O)C(C)CC)c2[nH]1 (centres unmarked) [Compound I-21] |  |
| ≤ 0.5 µg/mL | ≤ 0.5 µg/mL | CCNC(=O)Nc1nc2cc(-c3cccnc3)cc(C(=O)C(C)C)c2[nH]1 [Compound I-22] |  |
| ≤ 0.5 µg/mL | ≤ 0.5 µg/mL | CCNC(=O)Nc1nc2cc(-c3cccnc3)cc(C(=O)CC(C)C)c2[nH]1 [Compound I-24] |  |
| ≤ 0.5 µg/mL | ≤ 0.5 µg/mL | CCNC(=O)Nc1nc2cc(-c3cccnc3)cc(C(=O)C3CC3)c2[nH]1 [Compound I-25] |  |
| ≤ 0.5 µg/mL | ≤ 0.5 µg/mL | CCNC(=O)Nc1nc2cc(-c3cccnc3)cc(C(=O)C3CCCC3)c2[nH]1 [Compound I-28] |  |
| ≤ 0.5 µg/mL | ≤ 0.5 µg/mL | CCNC(=O)Nc1nc2cc(-c3cccnc3)cc(C(=O)OC(C)C)c2[nH]1 [Compound I-33] |  |
| ≤ 0.5 µg/mL | ≤ 0.5 µg/mL | CCNC(=O)Nc1nc2cc(-c3cccnc3)cc(C(=O)OCC)c2[nH]1 [Compound I-34] |  |
| 0.5 to 1 µg/mL (≈ 1.31 to 2.62 µM) | ≤ 0.5 µg/mL | CCNC(=O)Nc1nc2cc(-c3cccnc3)cc(C(=O)CCCCO)c2[nH]1 [Compound I-37] |  |
| ≤ 0.5 µg/mL | ≤ 0.5 µg/mL | CCNC(=O)Nc1nc2cc(-c3cccnc3)cc(/C(CC)=N/OC)c2[nH]1 [Compound I-38] |  |
| ≤ 0.5 µg/mL | ≤ 0.5 µg/mL | CCC/C(=N\OC)c1cc(-c2cccnc2)cc2nc(NC(=O)NCC)[nH]c12 [Compound I-39] |  |

Further lines, the molecule ahead of its results:

| Molecule | MIC (S. aureus) | MIC (S. pneumoniae) | MIC (Activity) against S. aureus (S. aureus) |
| --- | --- | --- | --- |
| 1-(7-Cyclohexanecarbonyl-5-pyridin-3-yl-1H-benzoimidazol-2-yl)-3-ethyl-urea [Compound I-14] |  |  | C (an MIC of greater than 1.0 μg/mL) |
| CCNC(=O)Nc1nc2cc(-c3cccnc3)c(F)c(C(=O)OC)c2[nH]1 [Compound I-3] | ≤ 0.5 µg/mL |  |  |
| CCNC(=O)Nc1nc2cc(-c3cncnc3)cc(C(=O)OC)c2[nH]1 [Compound I-5] | ≤ 0.5 µg/mL | ≤ 0.5 µg/mL |  |
| CCNC(=O)Nc1nc2cc(-c3cccnc3)c(F)c(C(=O)NC)c2[nH]1 [Compound I-6] | 0.5 to 1 µg/mL (≈ 1.4 to 2.81 µM) |  |  |
| CCNC(=O)Nc1nc2cc(-c3cncnc3)cc(C(=O)NC)c2[nH]1 [Compound I-7] | > 1 µg/mL |  |  |
| CCNC(=O)Nc1nc2cc(-c3cccnc3)cc(C(=O)C3CCCCC3)c2[nH]1 [Compound I-11] | ≤ 0.5 µg/mL | ≤ 0.5 µg/mL |  |
| CCNC(=O)Nc1nc2cc(-c3cncnc3)cc(C(=O)CC)c2[nH]1 [Compound I-23] | ≤ 0.5 µg/mL | ≤ 0.5 µg/mL |  |
| CCNC(=O)Nc1nc2cc(-c3cccnc3)cc(C(=O)c3nccn3C)c2[nH]1 [Compound I-26] | ≤ 0.5 µg/mL | ≤ 0.5 µg/mL |  |
| CCNC(=O)Nc1nc2cc(-c3cccnc3)cc(C(=O)c3nccn3CC)c2[nH]1 [Compound I-29] | ≤ 0.5 µg/mL | ≤ 0.5 µg/mL |  |
| CCNC(=O)Nc1nc2cc(-c3cccnc3)cc(C(=O)c3cn(C)cn3)c2[nH]1 [Compound I-30] | > 1 µg/mL | ≤ 0.5 µg/mL |  |
| CCNC(=O)Nc1nc2cc(-c3cccnc3)cc(C(=O)CCc3ccccn3)c2[nH]1 [Compound I-31] | ≤ 0.5 µg/mL | ≤ 0.5 µg/mL |  |
| CCNC(=O)Nc1nc2cc(-c3cc(C)n(Cc4ccccn4)c(=O)c3)cc(C(=O)OC)c2[nH]1 [Compound I-32] | ≤ 0.5 µg/mL | ≤ 0.5 µg/mL |  |
| CCNC(=O)Nc1nc2cc(-c3ccn(C)c(=O)c3)c(F)c(C(=O)OC)c2[nH]1 [Compound I-35] | ≤ 0.5 µg/mL | ≤ 0.5 µg/mL |  |
| CCNC(=O)Nc1nc2cc(-c3ccn(C)c(=O)c3)c(F)c(C(=O)NC)c2[nH]1 [Compound I-36] | > 1 µg/mL | ≤ 0.5 µg/mL |  |
| CCNC(=O)Nc1nc2cc(-c3cccnc3)cc(/C(=N/OC)C3CC3)c2[nH]1 [Compound I-40, 1-[4-(Cyclopropyl-methoxyimino-methyl)-6-pyridin-3-yl-1H-benzoimidazol-2-yl]-3-ethyl-urea] | ≤ 0.5 µg/mL | ≤ 0.5 µg/mL |  |
| CCNC(=O)Nc1nc2cc(-c3cccnc3)cc(/C(=N/OCC)C3CC3)c2[nH]1 [Compound I-41] | ≤ 0.5 µg/mL | ≤ 0.5 µg/mL |  |
| CCNC(=O)Nc1nc2cc(-c3cccnc3)cc(/C(=N\O)C3CCCC3)c2[nH]1 [Compound I-42] | ≤ 0.5 µg/mL | ≤ 0.5 µg/mL |  |
| CCNC(=O)Nc1nc2cc(-c3cccnc3)cc(/C(=N/O)C3CCCC3)c2[nH]1 [Compound I-43] | ≤ 0.5 µg/mL | ≤ 0.5 µg/mL |  |
| CCOC(=O)Nc1nc2cc(-c3cccnc3)cc(C(=O)CC)c2[nH]1 [Compound I-44, (7-Propionyl-5-pyridin-3-yl-1H-benzoimidazol-2-yl)-carbamic acid ethyl ester] | > 1 µg/mL | ≤ 0.5 µg/mL |  |
